Measurements reported in US20230339970A1, “CASEIN KINASE 1 DELTA MODULATORS” (priority 2020, published 2023).
Read-outs that look alike come from different tables or passages of the source.

Key:
[1] = ob/ob and diet-induced obese mouse, daily administration; cited from earlier work
circadian rhythms [2] = details: cellular reporter assays; cited from earlier work
circadian rhythms [3] = details: in vivo locomotor activity of a variety of species; cited from earlier work
[4] = including conditioned place preference with cocaine and alcohol reinstatement; cited from earlier work
human CSNK1D = biological target: T1, human CSNK1D (Homo sapiens, UniProt P48730); assay: Whole Cell nBRET CSNK1D Binding Assay; details: living CHO cells stably expressing human CSNK1D tagged with nanoluciferase; NanoBret tracer 130 nM; 2 hours at 37 C
T1 construct: expressed in transfected cells

[5] = biological target: T2, human recombinant GST cleaved CSNK1D (Homo sapiens, UniProt P48730); assay: Purified Enzyme Assay (ADP-Glo CSNK1D Kinase Assay); assay type: biochemical; details: 2 nM CSNK1D; peptide substrate 150 μM; ATP 20 μM; 45 minutes at room temperature
T2 construct: GST (cleaved yes); purchased University of Dundee clone DU 19064
In short: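 Percent activity derived from ADP-Glo quantification of ADP produced. Reactions: compound dose-response with human recombinant GST-cleaved CSNK1D, ATP and substrate peptide PLSRTL-pS-VASLPGL, incubated 45 min at room temperature.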

T2 sequence (P48730 whole entry): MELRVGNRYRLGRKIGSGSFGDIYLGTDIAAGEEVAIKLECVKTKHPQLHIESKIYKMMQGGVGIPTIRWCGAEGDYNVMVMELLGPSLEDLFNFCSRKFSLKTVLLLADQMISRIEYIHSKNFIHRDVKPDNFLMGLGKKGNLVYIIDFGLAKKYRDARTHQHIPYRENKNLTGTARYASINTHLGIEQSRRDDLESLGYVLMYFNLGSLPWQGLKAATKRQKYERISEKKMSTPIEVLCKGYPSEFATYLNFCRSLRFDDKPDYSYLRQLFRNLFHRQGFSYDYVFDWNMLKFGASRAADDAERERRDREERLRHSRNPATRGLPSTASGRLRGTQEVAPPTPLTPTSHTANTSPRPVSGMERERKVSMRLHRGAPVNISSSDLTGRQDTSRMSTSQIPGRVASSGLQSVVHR
T1 sequence (P48730 whole entry): as above

IC50 (human CSNK1D) [nM] | IC50 [5] [nM] | Structure (SMILES) | glucose tolerance [1] | effect on circadian rhythms (circadian rhythms [2]) | effect on circadian rhythms (circadian rhythms [3]) | efficacy in addiction/substance abuse models [4]
 |  | Nc1nccc(-c2c(-c3ccc(F)cc3)ncn2C2CCN(Cc3ccon3)CC2)n1 [PF-5006739] | improve glucose tolerance | significantly lengthened circadian rhythms | significantly lengthened circadian rhythms | 
 |  | Nc1nccc(-c2c(-c3ccc(F)cc3)ncn2C2CCCCC2)n1 [PF-670462] |  | significantly lengthened circadian rhythms | significantly lengthened circadian rhythms | shown efficacy
8 | 2 | CC1(C)Cn2nc(-c3ccc(F)cn3)c(-c3ccnc(NC(=O)CC(F)(F)F)c3)c2CO1 [Example 133, 3,3,3-Trifluoro-N-(4-(2-(5-fluoropyridin-2-yl)-6,6-dimethyl-6,7-dihydro-4H-pyrazolo[5,1-c][1,4]oxazin-3-yl)pyridin-2-yl)propenamide] |  |  |  | 
2890 | 34 | C[C@@H]1C[C@H](C)n2nc(-c3ccc(F)cn3)c(-c3ccnc4[nH]ncc34)c2O1 (single isomer, unassigned) [Example 203, (5*R,7*S)-2-(5-Fluoro-2-pyridyl)-5,7-dimethyl-3-(1H-pyrazolo[3,4-b]pyridin-4-yl)-6,7-dihydro-5H-pyrazolo[5,1-b][1,3]oxazine] |  |  |  | 
1 | 1 | Fc1ccc(-c2nn3c(c2-c2ccnc4[nH]ncc24)CCC2(C3)CC2(F)F)cc1 (single isomer, unassigned) [Example 325, (*R)-2,2-Difluoro-2′-(4-fluorophenyl)-3′-(1H-pyrazolo[3,4-b]pyridin-4-yl)-4′,5′-dihydro-7′H-spiro[cyclopropane-1,6′-pyrazolo[1,5-a]pyridine]] |  |  |  | 
569 | 120 | Cc1cc(-c2c(-c3ccc(Cl)c(F)c3)nn3c2COCC3)c2cn[nH]c2n1 [Example 73, 2-(4-Chloro-3-fluoro-phenyl)-3-(6-methyl-1H-pyrazolo[3,4-b]pyridin-4-yl)-6,7-dihydro-4H-pyrazolo[5,1-c][1,4]oxazine] |  |  |  | 
80 | 4 | Fc1ccc(-c2nn3c(c2-c2c(F)cnc4[nH]ncc24)OCC2(CC2)C3)nc1 [Example 459, 3′-(5-Fluoro-1H-pyrazolo[3,4-b]pyridin-4-yl)-2′-(5-fluoropyridin-2-yl)-5′H,7′H-spiro[cyclopropane-1,6′-pyrazolo[5,1-b][1,3]oxazine]] |  |  |  | 
96 | 12 | Fc1ccc(-c2nn3c(c2-c2ccncc2)COCC3)cc1 [Example 369, 2-(4-Fluorophenyl)-3-(4-pyridyl)-6,7-dihydro-4H-pyrazolo[5,1-c][1,4]oxazine] |  |  |  | 
127 | 6 | CC1(C)COc2c(-c3ccnc4cn[nH]c34)c(-c3ccc(F)cn3)nn2C1 [Example 454, 2-(5-Fluoro-2-pyridyl)-6,6-dimethyl-3-(1H-pyrazolo[4,3-b]pyridin-7-yl)-5,7-dihydropyrazolo[5,1-b][1,3]oxazine] |  |  |  | 
2 | 1 | Cc1cc(-c2c(-c3ccc(F)cc3)nn3c2C[C@H](F)C3)c2cn[nH]c2n1 [Example 12, (S)-4-(5-Fluoro-2-(4-fluorophenyl)-5,6-dihydro-4H-pyrrolo[1,2-b]pyrazol-3-yl)-6-methyl-1H-pyrazolo[3,4-b]pyridine] |  |  |  | 
238 | 14 | Fc1cnc(-c2nn3c(c2-c2ccnc4[nH]ncc24)CCCC3)c(F)c1 [Example 38, 4-[2-(3,5-Difluoro-2-pyridyl)-4,5,6,7-tetrahydropyrazolo[1,5-a]pyridin-3-yl]-1H-pyrazolo[3,4-b]pyridine] |  |  |  | 

Structure (SMILES) | IC50 (human CSNK1D) [nM] | IC50 [5] [nM] | glucose tolerance [1] | effect on circadian rhythms (circadian rhythms [2]) | effect on circadian rhythms (circadian rhythms [3]) | efficacy in addiction/substance abuse models [4]
Fc1ccc(-c2nn3c(c2-c2ccnc4[nH]ccc24)COCC3)nc1 [Example 1, 2-(5-Fluoro-2-pyridyl)-3-(1H-pyrrolo[2,3-b]pyridin-4-yl)-6,7-dihydro-4H-pyrazolo[5,1-c][1,4]oxazine] | 81 | 10 |  |  |  | 
